Reference: patent US9603833B2, “Benzene or thiophene derivative and use thereof as VAP-1 inhibitor” (R-Tech Ueno, Ltd., priority 2008, dated 2017)
Structures can show the parent of a compound that is named as a salt.

What was measured:
rat VAP-1 enzyme (SSAO) = rat VAP-1 enzyme (SSAO) (Rattus norvegicus (Rat), UniProt O08590); test: Inhibitory effect on rat VAP-1 enzyme (SSAO), radiochemical-enzyme assay using 14C-benzylamine; assay type: biochemical; conditions: rat VAP-1 expressed in a cell, cell extract; 14C-benzylamine 1×10^−5 mol/L; 37° C., 2 hours
Sequence of rat VAP-1 enzyme (SSAO) (O08590 whole entry): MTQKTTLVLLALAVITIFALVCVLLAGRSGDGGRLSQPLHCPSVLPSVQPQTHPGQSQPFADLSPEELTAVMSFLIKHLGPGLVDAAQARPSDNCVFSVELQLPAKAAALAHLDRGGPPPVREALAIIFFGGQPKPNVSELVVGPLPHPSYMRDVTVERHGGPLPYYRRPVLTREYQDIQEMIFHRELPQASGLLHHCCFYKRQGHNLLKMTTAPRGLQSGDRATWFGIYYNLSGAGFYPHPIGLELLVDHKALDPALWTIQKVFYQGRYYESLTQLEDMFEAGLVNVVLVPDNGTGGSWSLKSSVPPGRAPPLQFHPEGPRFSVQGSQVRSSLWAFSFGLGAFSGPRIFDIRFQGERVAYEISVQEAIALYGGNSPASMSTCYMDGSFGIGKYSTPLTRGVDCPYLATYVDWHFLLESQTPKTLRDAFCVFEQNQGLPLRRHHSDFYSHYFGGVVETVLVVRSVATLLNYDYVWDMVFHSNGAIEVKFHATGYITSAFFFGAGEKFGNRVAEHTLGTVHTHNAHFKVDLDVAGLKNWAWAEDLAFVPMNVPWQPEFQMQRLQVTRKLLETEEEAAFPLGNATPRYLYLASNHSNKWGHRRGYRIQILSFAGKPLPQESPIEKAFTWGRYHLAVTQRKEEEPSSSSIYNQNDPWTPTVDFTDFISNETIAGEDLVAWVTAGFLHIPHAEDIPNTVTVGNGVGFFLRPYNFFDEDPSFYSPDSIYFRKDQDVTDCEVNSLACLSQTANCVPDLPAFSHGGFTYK
Experimental: (§1) The compounds of the present invention obtained in Production Examples were examined for the inhibitory effect on human and rat VAP-1 enzyme (SSAO) by the following method.
(§2) The VAP-1 enzyme (SSAO) activity in both human and rat was measured by a radiochemical-enzyme assay using ^14C-benzylamine as an artificial substrate. Human or rat VAP-1 was cloned from the cDNA library and expressed in a cell. The cell extract was preincubated with a test compound solution (final concentration 1×10^−7-1×10^−10 mol/L) at room temperature for 20 minutes. Then, ^14C-benzylamine (final concentration 1×10^−5 mol/L) was added, and the mixture was incubated at a final volume of 200 μL at 37° C. for 2 hours. The enzyme reaction was stopped by addition of 2 mol/L (200 μL) citric acid. The oxidation product was extracted with 1 mL toluene/ethyl acetate (1:1), and the radioactivity thereof was measured by a liquid scintillation counter.

[1] = molecular target: human VAP-1 enzyme (SSAO) (Homo sapiens (Human), UniProt Q16853); test: Inhibitory effect on human VAP-1 enzyme (SSAO), radiochemical-enzyme assay using 14C-benzylamine; assay type: biochemical; conditions: human VAP-1 expressed in a cell, cell extract; 14C-benzylamine 1×10^−5 mol/L; 37° C., 2 hours
Sequence of human VAP-1 enzyme (SSAO) (Q16853 whole entry): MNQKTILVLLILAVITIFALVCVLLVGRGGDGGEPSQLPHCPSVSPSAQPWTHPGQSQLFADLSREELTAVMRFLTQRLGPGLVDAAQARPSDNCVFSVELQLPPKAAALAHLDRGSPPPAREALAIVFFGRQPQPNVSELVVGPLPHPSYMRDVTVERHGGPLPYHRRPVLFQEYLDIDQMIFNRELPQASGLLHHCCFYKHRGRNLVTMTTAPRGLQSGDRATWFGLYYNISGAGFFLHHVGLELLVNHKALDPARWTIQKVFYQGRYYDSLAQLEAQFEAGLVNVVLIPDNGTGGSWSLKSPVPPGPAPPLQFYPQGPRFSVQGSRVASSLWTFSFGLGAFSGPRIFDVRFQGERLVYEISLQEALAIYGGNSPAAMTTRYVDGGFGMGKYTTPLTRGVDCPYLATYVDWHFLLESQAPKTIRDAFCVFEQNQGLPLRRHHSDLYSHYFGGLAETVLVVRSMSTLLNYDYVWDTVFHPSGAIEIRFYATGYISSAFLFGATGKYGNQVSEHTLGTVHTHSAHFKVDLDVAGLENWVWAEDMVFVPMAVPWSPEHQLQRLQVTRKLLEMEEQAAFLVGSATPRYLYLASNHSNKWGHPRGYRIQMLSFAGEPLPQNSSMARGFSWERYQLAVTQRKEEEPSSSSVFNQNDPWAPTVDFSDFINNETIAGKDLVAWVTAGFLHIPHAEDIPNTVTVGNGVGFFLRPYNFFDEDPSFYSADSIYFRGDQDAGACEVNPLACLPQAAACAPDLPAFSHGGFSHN
Experimental: as §1, §2

IC50 (rat VAP-1 enzyme (SSAO)) | IC50 [1] | SMILES
3.6 nM | 16.1 nM | CC(=O)N1CCN(c2ccc(CCc3ccc(CC(=O)NN)cc3)cn2)CC1 [Production Example 47, 2-(4-{2-[6-(4-acetylpiperazin-1-yl)pyridin-3-yl]ethyl}phenyl)acetohydrazide trihydrochloride]
4.1 nM | 12.2 nM | NNC(=O)Cc1ccc(CCc2ccc(N3CCNCC3)s2)cc1 [Production Example 74, 2-{4-[2-(5-piperazin-1-ylthiophen-2-yl)ethyl]phenyl}acetohydrazide trihydrochloride]
1.9 nM | 15.7 nM | CCN(CC)c1ccc(CCc2ccc(CC(=O)NN)cc2)cn1 [Production Example 85, 2-(4-{2-[6-(diethylamino)pyridin-3-yl]ethyl}phenyl)acetohydrazide trihydrochloride]
1.4 nM | 22.1 nM | CCCN(C)c1ccc(CCc2ccc(CC(=O)NN)cc2)cn1 [Production Example 90, 2-[4-(2-{6-[methyl(propyl)amino]pyridin-3-yl}ethyl)phenyl]acetohydrazide trihydrochloride]
3.5 nM | 6.3 nM | NNC(=O)Cc1ccc(CCc2csc(N3CCNCC3)n2)cc1 [Production Example 95, 2-{4-[2-(2-piperazin-1-yl-1,3-thiazol-4-yl)ethyl]phenyl}acetohydrazide dihydrochloride]
2.5 nM | 13.5 nM | CC(=O)N1CCN(c2ccc(CCc3ccc(CC(=O)NN)cc3)nn2)CC1 [Production Example 99, 2-(4-{2-[6-(4-acetylpiperazin-1-yl)pyridazin-3-yl]ethyl}phenyl)acetohydrazide trihydrochloride]
0.7 nM | 0.9 nM | CC(=O)N1CCN(c2ccc(CCc3ccc(COC(=O)NN)cc3F)nc2)CC1 [Production Example 113, 4-{2-[5-(4-acetylpiperazin-1-yl)pyridin-2-yl]ethyl}-3-fluorobenzyl hydrazinecarboxylate trihydrochloride]
1.2 nM | 2 nM | CC(=O)N1CCN(c2ccc(CCc3ccc(CNC(=O)NN)cc3F)nc2)CC1 [Production Example 114, N-(4-{2-[5-(4-acetylpiperazin-1-yl)pyridin-2-yl]ethyl}-3-fluorobenzyl)hydrazinecarboxamide trihydrochloride]
10.1 nM | 4 nM | CC(=O)N1CCN(c2ccc(CCc3ccc(CCOC(=O)NN)s3)nc2)CC1 [Production Example 115, 2-(5-{2-[5-(4-acetylpiperazin-1-yl)pyridin-2-yl]ethyl}thiophen-2-yl)ethyl hydrazinecarboxylate]
9.8 nM | 9.5 nM | CC(=O)N1CCN(c2ccc(CCc3ccc(C(=O)NN)s3)nc2)CC1 [Production Example 116, 5-{2-[5-(4-acetylpiperazin-1-yl)pyridin-2-yl]ethyl}thiophene-2-carbohydrazide]
2.7 nM | 18.7 nM | CC(=O)N1CCN(c2ccc(CCc3ccc(CCNC(=O)NN)s3)nc2)CC1 [Production Example 117, N-[2-(5-{2-[5-(4-acetylpiperazin-1-yl)pyridin-2-yl]ethyl}thiophen-2-yl)ethyl]hydrazinecarboxamide]
8.7 nM | 4.7 nM | CC(=O)N1CCN(c2ccc(CCc3ccc(CCC(=O)NN)cc3)nc2)CC1 [Production Example 119, 3-(4-{2-[5-(4-acetylpiperazin-1-yl)pyridin-2-yl]ethyl}phenyl)propanehydrazide trihydrochloride]
0.6 nM | 3.7 nM | CC(=O)N1CCN(c2ccc(CCc3ccc(CC(=O)NN)s3)nc2)CC1 [Production Example 120, 2-(5-{2-[5-(4-acetylpiperazin-1-yl)pyridin-2-yl]ethyl}thiophen-2-yl)acetohydrazide]

The remaining lines, values behind:

SMILES | IC50 (rat VAP-1 enzyme (SSAO)) | IC50 [1]
NNC(=O)Cc1ccc(CCc2ccc(N3CCOCC3)nc2)cc1 [Production Example 12, {4-[2-(6-morpholin-4-ylpyridin-3-yl)ethyl]phenyl}acetohydrazide dihydrochloride] | 1.1 nM | 20.8 nM
NNC(=O)Cc1ccc(CCc2csc(C3CCNCC3)n2)cc1 [Production Example 20, 2-{4-[2-(2-piperidin-4-yl-1,3-thiazol-4-yl)ethyl]phenyl}acetohydrazide dihydrochloride] | 5.1 nM | 23.3 nM
CCN(CC)c1ccc(CCc2ccc(CC(=O)NN)cc2)cc1 [Production Example 30, 2-(4-{2-[4-(diethylamino)phenyl]ethyl}phenyl)acetohydrazide dihydrochloride] | 2.2 nM | 13 nM
NNC(=O)Cc1ccc(CCc2ccc(N3CCCC3)nc2)cc1 [Production Example 44, 2-{4-[2-(6-pyrrolidin-1-ylpyridin-3-yl)ethyl]phenyl}acetohydrazide trihydrochloride] | 5.4 nM | 18.3 nM
NNC(=O)Cc1ccc(CCc2ccc(N3CCCCC3)nc2)cc1 [Production Example 45, 2-{4-[2-(6-piperidin-1-ylpyridin-3-yl)ethyl]phenyl}acetohydrazide trihydrochloride] | 1.2 nM | 17.2 nM
NNC(=O)Cc1ccc(CCc2ccc(N3CCNCC3)cc2C(F)(F)F)cc1 [Production Example 59, 2-(4-{2-[4-piperazin-1-yl-2-(trifluoromethyl)phenyl]ethyl}phenyl)acetohydrazide trihydrochloride] | 6.1 nM | 11.3 nM
NNC(=O)Cc1ccc(CCc2ccc(CN3CCOCC3)cc2)cc1 [Production Example 70, 2-(4-{2-[4-(morpholin-4-ylmethyl)phenyl]ethyl}phenyl)acetohydrazide dihydrochloride] | 1.3 nM | 17.6 nM
CCN(CCN)c1ccc(CCc2ccc(CC(=O)NN)cc2)cc1 [Production Example 83, 2-[4-(2-{4-[(2-aminoethyl)(ethyl)amino]phenyl}ethyl)phenyl]acetohydrazide trihydrochloride] | 5.8 nM | 20.4 nM
NNC(=O)Cc1ccc(CCc2ccc(N3CCNCC3)cn2)cc1 [Production Example 86, 2-{4-[2-(5-piperazin-1-ylpyridin-2-yl)ethyl]phenyl}acetohydrazide tetrahydrochloride] | 1 nM | 9.8 nM
CCN(CC)c1ccc(CCc2ccc(CC(=O)NN)cc2)nc1 [Production Example 88, 2-(4-{2-[5-(diethylamino)pyridin-2-yl]ethyl}phenyl)acetohydrazide trihydrochloride] | 0.9 nM | 10.2 nM
CCN(C)c1ccc(CCc2ccc(CC(=O)NN)cc2)cn1 [Production Example 89, 2-[4-(2-{6-[ethyl(methyl)amino]pyridin-3-yl}ethyl)phenyl]acetohydrazide trihydrochloride] | 0.9 nM | 15.4 nM
CCCN(CCC)c1ccc(CCc2ccc(CC(=O)NN)cc2)cn1 [Production Example 92, 2-(4-{2-[6-(dipropylamino)pyridin-3-yl]ethyl}phenyl)acetohydrazide trihydrochloride] | 0.8 nM | 20.5 nM
CC(=O)N1CCN(c2cnc(CCc3ccc(CC(=O)NN)cc3)cn2)CC1 [Production Example 101, 2-(4-{2-[5-(4-acetylpiperazin-1-yl)pyrazin-2-yl]ethyl}phenyl)acetohydrazide trihydrochloride] | 2.1 nM | 3.4 nM
NNC(=O)Cc1ccc(CCc2cncc(N3CCNCC3)c2)cc1 [Production Example 102, 2-{4-[2-(5-piperazin-1-ylpyridin-3-yl)ethyl]phenyl}acetohydrazide tetrahydrochloride] | 9.4 nM | 19.4 nM
NNC(=O)Cc1ccc(CCc2cc(N3CCNCC3)ncn2)cc1 [Production Example 106, 2-{4-[2-(6-piperazin-1-ylpyrimidin-4-yl)ethyl]phenyl}acetohydrazide tetrahydrochloride] | 7.5 nM | 19 nM
CC(=O)N1CCN(c2ccc(CCc3ccc(COC(=O)NN)cc3)nc2)CC1 [Production Example 108, 4-{2-[5-(4-acetylpiperazin-1-yl)pyridin-2-yl]ethyl}benzyl hydrazinecarboxylate trihydrochloride] | 0.8 nM | 0.9 nM
CC(=O)N1CCN(c2ccc(CCc3ccc(CNC(=O)NN)cc3)nc2)CC1 [Production Example 109, N-(4-{2-[5-(4-acetylpiperazin-1-yl)pyridin-2-yl]ethyl}benzyl)hydrazinecarboxamide trihydrochloride] | 1.4 nM | 3.7 nM
CC(=O)N1CCN(c2ccc(CCc3ccc(OC(=O)NN)cc3)nc2)CC1 [Production Example 110, 4-{2-[5-(4-acetylpiperazin-1-yl)pyridin-2-yl]ethyl}phenyl hydrazinecarboxylate trihydrochloride] | 1.6 nM | 3.5 nM
CC(=O)N1CCN(c2ccc(CCc3cccc(COC(=O)NN)c3)nc2)CC1 [Production Example 111, 3-{2-[5-(4-acetylpiperazin-1-yl)pyridin-2-yl]ethyl}benzyl hydrazinecarboxylate trihydrochloride] | 0.4 nM | 0.5 nM
CC(=O)N1CCN(c2ccc(CCc3cccc(CNC(=O)NN)c3)nc2)CC1 [Production Example 112, N-(3-{2-[5-(4-acetylpiperazin-1-yl)pyridin-2-yl]ethyl}benzyl)hydrazinecarboxamide trihydrochloride] | 0.7 nM | 0.7 nM
